The source of these data is patent US20220117890A1, “CANNABINOID EMULSIONS” (CORN PRODUCTS DEVELOPMENT, INC., priority 2020, published 2022).

A short description of data set [1]: Plasma pharmacokinetics of CBD after single IV or oral administration. Type of data set: in vivo, male Sprague-Dawley rats. The settings on record: male, Sprague-Dawley, IV 2 mg/kg, rat. An excerpt:
Plasma pharmacokinetics following single intravenous cannabidiol (CBD solid) or oral administration (4 emulsions+1 non-emulsified oil) was investigated in male Sprague-Dawley rats. Rats were used for this study because they are an accepted model for characterization of pharmacokinetics of formulations being developed for humans. Twelve (12) single-catheterized rats (275-300 g, jugular vein catheter) were obtained from Envigo and divided into 6 groups of 2 animals each. Rats were acclimated for 5 days; the temperature was controlled from 68-79° F., the humidity was controlled from 20% to 70% and the light source was fluorescent lamps with a light/dark cycle of 12/12 hours on/off. No concurrent medication was administered during the study, and all rats had access (ad-libitum) to Tekland Rodent Chow 2018 (Envigo) and tap water throughout the live phase. All animals were randomly placed. Post acclimation, all animals received a single IV (tail vein injection) or oral treatment of one of the nanoemulsions, a non-emulsified oil, or a positive control based on Table 7. Group 1 animals received a single IV injection while Groups 2-6 received a single oral administration. The non-emulsified oil is CBD isolate dissolved in MCT oil. WFI=sterile water for injection. Dosing and dose volume are in […] (body weight) and mL/kg (body weight) respectively.
The CBD concentration in blood plasma samples obtained at various collection times (15, 30, 60, 120, 180, 240, 480 minutes and 24 hr) was determined.
The following pharmacokinetic parameters were determined: Bioavailability absolute (Fabs), Bioavailability relative to non-emulsified (Frel), the time at maximum concentration, the maximum concentration, and half-life (T1/2).

Assay in data set [2]: as above
Type of data set: in vivo, male Sprague-Dawley rats. The settings on record: male, Sprague-Dawley, IV 2 mg/kg, rat, read-out: Concentration (CBD in blood plasma).

As to `C=C(C)[C@@H]1CCC(C)=C[C@H]1c1c(O)cc(CCCCC)cc1O` [CBD solid, cannabidiol], in data set [1], the AUC(0-inf) – broadly, the area under the concentration-time curve extrapolated to infinity – is 2010 ng·h/mL and the AUC(0-t) (usually exposure summed from dosing to a finite time, without extrapolation to infinity) worked out at 1980 ng·h/mL. For the same compound, the Cmax in data set [1] (read-out: Cmax (maximum concentration)) was 1560 ng/mL. In data set [1] (read-out: Tmax (time at maximum concentration)), the Tmax stood at 15 min. For the same compound, in data set [1] (time 30 min, read-out: Concentration (CBD in blood plasma)), the concentration at 30 min was 481 ng/mL. In addition, the concentration at 60 min in data set [1] (time 60 min, read-out: Concentration (CBD in blood plasma)) is 341 ng/mL. Besides, in data set [1] (time 120 min, read-out: Concentration (CBD in blood plasma)), the concentration at 120 min amounted to 178 ng/mL. Besides, in data set [1] (time 180 min, read-out: Concentration (CBD in blood plasma)), the concentration at 180 min was 89.2 ng/mL. Moreover, the concentration at 240 min in data set [1] (time 240 min, read-out: Concentration (CBD in blood plasma)) was found to be 44.2 ng/mL. The concentration at 480 min in data set [1] (time 480 min, read-out: Concentration (CBD in blood plasma)) is 10.6 ng/mL. In addition, the concentration at 24 hr in data set [1] (time 24 hr, read-out: Concentration (CBD in blood plasma)) was 5.2 ng/mL. Moreover, the concentration at 5 min in data set [2] came out at 1560 ng/mL.
